The text below walks through data of patent publication US12171801B2, “Compositions and related methods for controlling vector-borne diseases” (priority 2017, dated 2024).

The subject of assay [1] is Acyrthosiphon pisum aphids. In words: Aphid survival monitoring. The format is in vivo.
Assay [2] concerns Acyrthosiphon pisum aphids. In words: Aphid developmental stage monitoring. The conditions noted are these: for aphids that did not mature further than the 4rd instar stage: 11 days post-treatment. Format: in vivo. How it is done:
In addition, the developmental stage (1st, 2nd, 3rd, 4th, 5th instar) was determined daily throughout the experiment. Once an aphid reached the 4th instar stage, they were given their own artificial feeding system in a deep petri dish so that fecundity could be monitored once they reached adulthood.
Each treatment group received approximately the same number of individuals from each of the collection plant. For each treatment, 20 aphids were placed onto each leaf. Aphids were monitored daily for survival and dead aphids were removed when they were discovered. In addition, the developmental stage (1st, 2nd, 3rd, 4th, 5th instar, and 5 R, representing a reproducing 5th instar) was determined daily throughout the experiment. Pictures of aphids were taken throughout the experiment to evaluate size differences between treatment groups.
Aphids LSR-1 (which harbor only Buchnera), Acyrthosiphon pisum were grown on fava bean plants (Vroma vicia faba from Johnny's Selected Seeds) in a climate-controlled incubator (16 h light/8 h dark photoperiod; 60±5% RH; 25±2° C.). Prior to being used for aphid rearing, fava bean plants were grown in potting soil at 24° C. with 16 h of light and 8 h of darkness. To limit maternal effects or health differences between plants, 5-10 adults from different plants were distributed among 10 two-week-old plants, and allowed to multiply to high density for 5-7 days. For experiments, first and second instar aphids were collected from healthy plants and divided into 2 different treatment groups: 1) negative control (leaf injected with water plus blue food coloring) and 2) leaf injected with 50 μg/ml rifampicin in water plus blue food coloring. Each treatment group received approximately the same number of individuals from each of the collection plants. For treatment, rifampicin stock solution (25 mg/ml in 100% methanol) was diluted to 50 μg/ml in water plus blue food coloring. The solution was then placed into a 1.5 ml Eppendorf tube with a fava bean stem perfused with the solutions and the opening of the tube was closed using parafilm. This feeding system was then placed into a deep petri dish (Fisher Scientific, Cat #FB0875711) and aphids were applied to the leaves of the plant. For each treatment, 74-81 aphids were placed onto each leaf. The feeding systems were changed every 2-3 days throughout the experiment. Aphids were monitored daily for survival and dead aphids were removed from the deep petri dish when they were discovered. In addition, the developmental stage (1st, 2nd, 3rd, 4th, 5th and 5 R (5th that has reproduced) instar) was determined daily throughout the experiment.
In addition, the developmental stage (1st 2nd, 3rd, 4th, 5th and 5 R (5th that has reproduced) instar) was determined daily throughout the experiment.
(§1) In addition, the developmental stage (1st, 2nd, 3rd, 4th, 5th, and 5 R (5th that has reproduced) instar) was determined daily throughout the experiment.
In addition, the developmental stage (1st, 2nd, 3rd, 4th, 5th and 5 R (5th that has reproduced) instar) was determined daily throughout the experiment.
In addition, the developmental stage (1st, 2nd, 3rd, 4th, 5th, and 5 R (5th instar aphids that are reproducing) instar) was determined daily throughout the experiment.
In addition, the developmental stage (1st, 2nd, 3rd 4th and 5th instar) was determined daily throughout the experiment.
In addition, the developmental stage (1st, 2nd, 3rd, 4th, 5th, and 5 R (5th that has reproduced) instar) was determined daily throughout the experiment. Once an aphid reached the 4th instar stage, they were given their own artificial feeding system in a deep petri dish so that fecundity could be monitored once they reached adulthood.
as §1

Assay [3] has as its system Buchnera. In words: Buchnera/aphid DNA copy number by qPCR. The settings on record: lowest concentration (0.5%), 3 days. Format: in vivo, Acyrthosiphon pisum.

“Also recorded” adds a separate entry of the source. Where only a bound is given, the exact number is not on record here.

Take `Cc1cc2c(C(C)C)c(O)c(O)c(C=O)c2c(O)c1-c1c(C)cc2c(C(C)C)c(O)c(O)c(C=O)c2c1O` [gossypol, gossypol acetic acid]: in assay [1] (0.5%, through plants), the “time after which aphids began dying” value was 2 days and the “time by which all aphids succumbed to treatment” value is not above 4 days.

For the compound `CC(=O)CCC(=O)O` [levulinic acid], the “aphids that did not mature further than the 4rd instar stage” value in assay [2] (0.03%) is recorded as approximately 23%; in assay [2] (0.3%) it was approximately 63%. Moreover, the aphid development entry in assay [2] (0.03 or 0.3% in water, leaf injection and through plant, eNASCO) is “delayed aphid development”. In addition, the aphid survival entry in assay [1] (0.03%, 11-day experiment) was “higher mortality compared to control treated aphids”; in assay [1] (0.03 or 0.3%), “dose-dependent decrease in survival; also recorded: decrease in insect survival”; in assay [1] (0.3%, 11-day experiment), “significantly less”.

On to `O=C/C=C/c1ccccc1` [trans-cinnemaldehyde], for which, in assay [3], the “Buchnera/aphid DNA copies” value is reported as “high ratios of Buchnera/aphid DNA copies”. In addition, the aphid development result in assay [2] (0.05%, 0.5% and 5% in water, leaf perfusion and through plants, 3 days) is “delayed”; in assay [2] (0.05%, 0.5% and 5% in water, leaf perfusion and through plants, 3 days, listed as Trans-cinnemaldehyde), “delayed aphid development”. Moreover, the “aphid development (stage reached)” value in assay [2] (5%) is “remained at the 1st instar stage throughout the course of the experiment”. Further, the aphid survival result in assay [1] (0.05%, 0.5%, and 5%) is reported as “dose-dependent decrease in survival; also recorded: significantly lower”.
